According to patent US10759797B2, “Pharmaceutically acceptable salt of EGFR inhibitor, crystal form thereof, preparation method therefor and application thereof” (Wuxi Shuangliang Biotechnology Co., Ltd., priority 2017, dated 2020):
Counter-ions that a name gives are not always drawn.

Legend:
Format in all cases: physicochemical
[1] = One month accelerated stability study at 40° C./75% RH (shape, purity, XRPD)
Description: The six pharmaceutically acceptable salts of EGFR inhibitor in Examples 1 to 6 were placed in a condition of 40° C./75% RH, and a one month accelerated stability study was carried out. Samples were taken at the end of 0 and 1 month respectively, and emphasis was placed upon the shape, purity and crystal form stability (XRPD pattern) of the samples.
Stable refers to no occurrence of degradation and no detection of transformation to other crystal forms by analytical means such as chromatography and XRPD.

[2] = Solubility study in water (saturated solutions, HPLC linear equation; Pharmacopoeia and BCS classification); conditions: in water and artificial gastric fluid
[3] = Solubility study in artificial gastric fluid (saturated solutions, HPLC linear equation; Pharmacopoeia and BCS classification)
Source text: (§1) Various pharmaceutically acceptable salts of EGFR inhibitor present in form of crystal in Examples 1 to 3 and 5 to 6 were classified with reference to the relevant requirements of the Pharmacopoeia of the People's Republic of China and the Bio-pharmaceutics Classification System (BCS).
(§2) (a) Relevant Requirements of Solubility in the Pharmacopoeia of the People's Republic of China, 2015 Edition, General Notices:
(§3) (b) Relevant Requirements of Solubility in BCS: Do=(Mo/Vo)/Cs;
(§4) wherein Do: dose index; Mo: highest single dose of the drug (with reference to the relevant dose of osimertinib, tentatively set to 80 mg); Vo: the volume of body fluid required for dissolving the drug (about 250 ml); Cs: saturated solubility of the drug;
(§5) if Do≤1, solubility is high; and if Do>1, solubility is low.
(§6) Using an EGFR inhibitor free base as a control, linear regression was carried out by plotting peak area versus concentration, and the corresponding linear equation was obtained in the range of 0.025 to 1.5 mg/ml: A=19775.0411c+2.4256, r=1.0000.
Artificial gastric fluid was used as solvent. An appropriate amount of the EGFR inhibitor mesylate salt (crystal form A), p-toluenesulfonate salt (crystal form B), phosphate salt (crystal form C), phosphate salt (amorphous), hydrochloride salt (crystal form C), and citrate salt (crystal form E) prepared in Examples 1 to 6 was weighed, and prepared into saturated solutions. Samples were taken after standing for 1 hour, 4 hours, and 24 hours, respectively, and the concentration of each sample in saturation state was calculated according to the linear equation.

[4] = Hygroscopicity study of crystal forms (Chinese Pharmacopoeia 2015, part 4, appendix 9103)
Description: Hygroscopicity comparison study was carried out for various pharmaceutically acceptable salts of EGFR inhibitor present in the form of crystal in Examples 1 to 3 and 5 to 6, the amorphous EGFR inhibitor phosphate salt in Example 4, and the EGFR inhibitor present in a free base form. Tests were conducted according to the method in the Pharmacopoeia of the People's Republic of China, 2015 edition, part 4, appendix 9103 (temperature: 25° C.±1° C., relative humidity: 80%±2%), and the results were as shown in Table 6.
With regard to the description of hygroscopic properties and definition of hygroscopic weight gain, refer to the Pharmacopoeia of the People's Republic of China, 2015 edition, part 4, appendix 9103, experimental guideline of drug hygroscopicity, herein descried by way of example as follows.
Deliquescence: absorb enough water to form a liquid.
Very hygroscopic: hygroscopic weight gain […] 15%.
Hygroscopic: hygroscopic weight gain less than 15% but not less than 2%.
Non- or almost non-hygroscopic: hygroscopic weight gain less than 0.2%.

[5] = Solubility study in water (saturated solutions, HPLC linear equation; Pharmacopoeia and BCS classification)
Source text: as §1, §2, §3, §4, §5, §6
Water was used as solvent. An appropriate amount of the EGFR inhibitor mesylate salt, p-toluenesulfonate salt, phosphate salt, hydrochloride salt and citrate salt prepared in Examples 1 to 3 and 5 to 6 was weighed, and prepared into saturated solutions. Samples were taken after standing for 1 hour, 4 hours, and 24 hours, respectively, and the concentration of each sample in saturation state was calculated according to the linear equation.

C=CC(=O)Nc1cc(Nc2nccc(-c3cn(C)c4cccnc34)n2)c(OC)cc1N(C)CCN(C)C [phosphate salt (crystal form C)]
Appearance, 1 month ([1]; after 1 month at 40° C./75% RH): tan solid | Purity (%), 1 month ([1]; after 1 month at 40° C./75% RH): 98.5% | XRPD pattern (0 month versus 1 month) ([1]; after 1 month at 40° C./75% RH): consistent | Appearance, 0 month ([1]; start of study (0 month)): tan solid | Purity (%), 0 month ([1]; start of study (0 month)): 98.5% | Solubility with reference to Pharmacopoeia solubility classification [2]: high | Pharmacopoeia of the People's Republic of China Solubility level ([3]; artificial gastric fluid): freely soluble | Solubility in artificial gastric fluid compared with water ([3]; artificial gastric fluid versus water): higher solubility in artificial gastric fluid than in water | Solubility in artificial gastric fluid, 1 h ([3]; artificial gastric fluid, saturated solution, standing 1 hour): 156.70 mg/mL | Solubility in artificial gastric fluid, 4 h ([3]; artificial gastric fluid, saturated solution, standing 4 hours): 159.14 mg/mL | Solubility in artificial gastric fluid, 24 h ([3]; artificial gastric fluid, saturated solution, standing 24 hours): 147.08 mg/mL | BCS level (Do) ([3]; artificial gastric fluid, Do=(Mo/Vo)/Cs, Mo 80 mg, Vo about 250 ml, Do≤1 solubility high, Do>1 low): 0.0022 < 1 | Degradation in the solubility study ([3]; water and artificial gastric fluid, up to 24 hours): no significant degradation | Hygroscopicity as compared with that of the EGFR inhibitor present in a free base form ([4]; 25° C./RH 80%): higher hygroscopicity | Weight gain over 6 hours (%) ([4]; 25° C.±1° C., relative humidity 80%±2%, 6 hours): 9.15% | Weight gain over 24 hours (%) ([4]; 25° C.±1° C., relative humidity 80%±2%, 24 hours): 11.98% | Hygroscopicity ([4]; 25° C.±1° C., relative humidity 80%±2%, Pharmacopoeia class): hygroscopic | Pharmacopoeia of the People's Republic of China Solubility level [5]: freely soluble | BCS level (Do) ([5]; Do=(Mo/Vo)/Cs, Mo 80 mg, Vo about 250 ml, Do≤1 solubility high, Do>1 low): 0.0023 < 1 | Solubility in water, 1 h ([5]; saturated solution, standing 1 hour): 107.15 mg/mL | Solubility in water, 4 h ([5]; saturated solution, standing 4 hours): 133.32 mg/mL | Solubility in water, 24 h ([5]; saturated solution, standing 24 hours): 137.13 mg/mL
